#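 1) Cells in 96-well plates. 2) Compound, 48 h, 5 concentrations. 3) Linear interpolation between surrounding doses. 4) Unreached endpoint = highest concentration. GI50 = concentration required for 50% inhibition of growth.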 The source made the active and inactive calls. No stated cut-off is given here; in the data, active = GI50 up to about 1.1 µM and inactive = higher.
# Columns and labels:
# Assay in all cases: NCI tumour cell line growth inhibition, 48 h
# MDA-N = test system: MDA-N
# KM12 = test system: KM12
# RXF 393 = test system: RXF 393
# CAKI-1 = test system: CAKI-1
# NCI-H522 = test system: NCI-H522
# M14 = test system: M14
# HCT-116 = test system: HCT-116
# CCRF-CEM = test system: CCRF-CEM
# RPMI-8226 = test system: RPMI-8226
# UACC-62 = test system: UACC-62
# HT-29 = test system: HT-29
# HCT-15 = test system: HCT-15
# MCF7 = test system: MCF7
# OVCAR-8 = test system: OVCAR-8
# SN12C = test system: SN12C
# SK-MEL-28 = test system: SK-MEL-28
# A498 = test system: A498
# K562 = test system: K562
# SF-295 = test system: SF-295
# MOLT-4 = test system: MOLT-4
Structure (SMILES),GI50 (MDA-N),GI50 (KM12),GI50 (RXF 393),GI50 (CAKI-1),GI50 (NCI-H522),GI50 (M14),GI50 (HCT-116),GI50 (CCRF-CEM),GI50 (RPMI-8226),GI50 (UACC-62),GI50 (HT-29),GI50 (HCT-15),GI50 (MCF7),GI50 (OVCAR-8),GI50 (SN12C),GI50 (SK-MEL-28),GI50 (A498),GI50 (K562),GI50 (SF-295),GI50 (MOLT-4)
CN(C)/C=N/Cc1ccc2c(c1)OCO2,> 100 µM (inactive),> 100 µM (inactive),> 100 µM (inactive),> 100 µM (inactive),> 100 µM (inactive),> 100 µM (inactive),> 100 µM (inactive),> 100 µM (inactive),> 100 µM (inactive),> 100 µM (inactive),> 100 µM (inactive),> 100 µM,> 100 µM (inactive),> 100 µM (inactive),> 100 µM (inactive),> 100 µM (inactive),> 100 µM (inactive),> 100 µM (inactive),> 100 µM (inactive),> 100 µM (inactive)
CCN(CC)CCOCCOCC1(c2ccc(Cl)c(Cl)c2)CCCCC1,3.65 µM (inactive),5.06 µM (inactive),4.26 µM (inactive),10.1 µM (inactive),7.91 µM (inactive),1.7 µM (inactive),5.82 µM (inactive),2.99 µM (inactive),2.51 µM (inactive),8.87 µM (inactive),2.29 µM (inactive),4.34 µM,6.34 µM (inactive),13.8 µM (inactive),11.9 µM (inactive),5.22 µM (inactive),13.1 µM (inactive),2.82 µM (inactive),5.83 µM (inactive),4.99 µM (inactive)
O=S(=O)(O)c1c(Cl)c(Cl)c(O)c2ncccc12,14.6 µM (inactive),10.8 µM (inactive),19.3 µM (inactive),18.6 µM (inactive),4.12 µM (inactive),12 µM (inactive),5.56 µM (inactive),4.01 µM (inactive),10.6 µM (inactive),8.34 µM (inactive),9.89 µM (inactive),5.33 µM,5.04 µM (inactive),10.3 µM (inactive),14 µM (inactive),13 µM (inactive),1 µM (active),7.57 µM (inactive),7.06 µM (inactive),3.33 µM (inactive)
COc1cc(/C=C/C2=NN(c3cccc(S(=O)(=O)O)c3)C3(C2)C(Cl)C(=O)N3c2nc3ccccc3s2)ccc1O (stereo not given),25.2 µM (inactive),19.1 µM (inactive),29.2 µM (inactive),17 µM (inactive),13.9 µM (inactive),40.7 µM (inactive),19.5 µM (inactive),17.7 µM (inactive),16.1 µM (inactive),18.5 µM (inactive),20.7 µM (inactive),16.7 µM,33.1 µM (inactive),18.3 µM (inactive),21.9 µM (inactive),25.1 µM (inactive),55.6 µM (inactive),20.8 µM (inactive),–,19.2 µM (inactive)
Cc1csc2c(=O)n(COCc3ccccc3)c(=O)[nH]c12,> 100 µM (inactive),> 100 µM (inactive),> 100 µM (inactive),> 100 µM (inactive),94.8 µM (inactive),> 100 µM (inactive),> 100 µM (inactive),> 100 µM (inactive),> 100 µM (inactive),–,> 100 µM (inactive),–,95.9 µM (inactive),> 100 µM (inactive),> 100 µM (inactive),> 100 µM (inactive),> 100 µM (inactive),> 100 µM (inactive),> 100 µM (inactive),> 100 µM (inactive)
N#CC12CC3=C(N=C1NC1=C(CCc4ccccc41)C2)c1ccccc1CC3 (stereo not given),0.258 µM (active),0.938 µM (active),3.4 µM (inactive),3.8 µM (inactive),1.23 µM (inactive),2.76 µM (inactive),1.95 µM (inactive),0.745 µM (active),0.993 µM (active),2.82 µM (inactive),0.533 µM (active),1.76 µM,0.594 µM (active),3.24 µM (inactive),5.15 µM (inactive),4.06 µM (inactive),1.8 µM (inactive),0.317 µM (active),0.984 µM (active),1.72 µM (inactive)
COC[C@@H](/N=C/C(C)(C)C)C(C)C,> 100 µM (inactive),> 100 µM (inactive),> 100 µM (inactive),> 100 µM (inactive),> 100 µM (inactive),> 100 µM (inactive),> 100 µM (inactive),> 100 µM (inactive),> 100 µM (inactive),> 100 µM (inactive),> 100 µM (inactive),> 100 µM,> 100 µM (inactive),> 100 µM (inactive),> 100 µM (inactive),> 100 µM (inactive),> 100 µM (inactive),> 100 µM (inactive),> 100 µM (inactive),> 100 µM (inactive)
COc1cc(/C=C2\C(=O)N(c3cccc(Cl)c3)C(c3ccccc3)S2(=O)=O)cc(OC)c1OC (stereo not given),20.8 µM (inactive),58.1 µM (inactive),26.2 µM (inactive),> 100 µM (inactive),17.8 µM (inactive),31.3 µM (inactive),24.1 µM (inactive),18.2 µM (inactive),23.2 µM (inactive),32.7 µM (inactive),> 100 µM (inactive),54.3 µM,33.9 µM (inactive),86.7 µM (inactive),72.8 µM (inactive),69.2 µM (inactive),> 100 µM (inactive),22.3 µM (inactive),36.4 µM (inactive),23.9 µM (inactive)
C(/C=N/N=C1NCCN1)=N\N=C1NCCN1,> 100 µM (inactive),> 100 µM (inactive),> 100 µM (inactive),> 100 µM (inactive),72.3 µM (inactive),> 100 µM (inactive),> 100 µM (inactive),> 100 µM (inactive),> 100 µM (inactive),> 100 µM (inactive),> 100 µM (inactive),> 100 µM,> 100 µM (inactive),> 100 µM (inactive),–,> 100 µM (inactive),> 100 µM (inactive),17.8 µM (inactive),> 100 µM (inactive),> 100 µM (inactive)
O=C1NC(=O)C(COCc2ccccc2)C2=C1SCCC2 (stereo not given),> 100 µM (inactive),> 100 µM (inactive),> 100 µM (inactive),> 100 µM (inactive),> 100 µM (inactive),> 100 µM (inactive),> 100 µM (inactive),> 100 µM (inactive),> 100 µM (inactive),–,> 100 µM (inactive),> 100 µM,> 100 µM (inactive),> 100 µM (inactive),–,> 100 µM (inactive),> 100 µM (inactive),> 100 µM (inactive),> 100 µM (inactive),> 100 µM (inactive)
C/C(=N\O)c1cccc(Nc2nc3ccccc3c3occc23)c1,13.1 µM (inactive),10 µM (inactive),5.19 µM (inactive),10.7 µM (inactive),–,12.7 µM (inactive),12.3 µM (inactive),8.02 µM (inactive),7.06 µM (inactive),< 0.01 µM (active),4.32 µM (inactive),7.94 µM,15 µM (inactive),16.6 µM (inactive),15.5 µM (inactive),14.3 µM (inactive),14.8 µM (inactive),7.85 µM (inactive),8.83 µM (inactive),5.96 µM (inactive)
NS(=O)(=O)c1ccc(NC(=S)N/C=C2\C(=O)Oc3ccccc3C2=O)cc1,34.4 µM (inactive),16.5 µM (inactive),12.2 µM (inactive),19.3 µM (inactive),23.2 µM (inactive),21.3 µM (inactive),33.5 µM (inactive),37.9 µM (inactive),30.4 µM (inactive),34.8 µM (inactive),53.5 µM (inactive),39.2 µM,99.5 µM (inactive),16.2 µM (inactive),22.5 µM (inactive),–,20.5 µM (inactive),35.1 µM (inactive),32 µM (inactive),53 µM (inactive)
CC12OC1(C)C1C(=O)OCC1C2=O (stereo not given),> 100 µM (inactive),44.7 µM (inactive),31.8 µM (inactive),29.2 µM (inactive),14.7 µM (inactive),49.4 µM (inactive),66.4 µM (inactive),17.5 µM (inactive),> 100 µM (inactive),99.3 µM (inactive),49.7 µM (inactive),55 µM,61.7 µM (inactive),49.9 µM (inactive),26.7 µM (inactive),> 100 µM (inactive),> 100 µM (inactive),28.2 µM (inactive),83.8 µM (inactive),–
O=C(O)[C@@H]1CSCN1C(=O)[C@@H]1CCC(=S)N1,> 100 µM (inactive),> 100 µM (inactive),> 100 µM (inactive),> 100 µM (inactive),> 100 µM (inactive),> 100 µM (inactive),–,> 100 µM (inactive),> 100 µM (inactive),> 10 µM (inactive),> 100 µM (inactive),> 100 µM,> 100 µM (inactive),> 100 µM (inactive),> 100 µM (inactive),> 100 µM (inactive),> 100 µM (inactive),> 100 µM (inactive),> 100 µM (inactive),> 100 µM (inactive)
COc1ccc2c(=O)c(-c3cc(OC)c(OC)cc3OC)coc2c1,0.262 µM (active),2.74 µM (inactive),2.45 µM (inactive),3.01 µM (inactive),1.28 µM (inactive),4.49 µM (inactive),2.28 µM (inactive),1.56 µM (inactive),2.35 µM (inactive),1.97 µM (inactive),2.35 µM (inactive),1.24 µM,0.778 µM (active),9.73 µM (inactive),13.3 µM (inactive),3.65 µM (inactive),8.45 µM (inactive),1.11 µM (active),1.66 µM (inactive),2 µM (inactive)

# Source: ChEMBL document CHEMBL1201862, “PubChem BioAssay data set” (2004)
